What was measured:
[1] = target: IRAK4 (Homo sapiens (Human), UniProt Q9NWZ3); assay: IRAK4 Inhibition Assay; format: biochemical; details: ATP 500 μM; IRAK4 0.6 nM; 60 min at room temperature
Experimental: The assays were performed in U-bottom 384-well plates. The final assay volume was 30 μL prepared from 15 μL additions of enzyme and substrates (fluoresceinated peptide and ATP) and test compounds in assay buffer (20 mM HEPES pH 7.2, 10 mM MgCl2, 0.015% Brij 35 and 4 mM DTT). The reaction was initiated by the combination of IRAK4 with substrates and test compounds. The reaction mixture was incubated at room temperature for 60 min. and terminated by adding 45 μL of 35 mM EDTA to each sample. The reaction mixture was analyzed on the Caliper LABCHIP® 3000 (Caliper, Hopkinton, MA) by electrophoretic separation of the fluorescent substrate and phosphorylated product. Inhibition data were calculated by comparison to no enzyme control reactions for 100% inhibition and vehicle-only reactions for 0% inhibition. The final concentrations of reagents in the assays are ATP, 500 μM; FL-IPTSPITTTYFFFKKK peptide 1.5 μM; IRAK4, 0.6 nM; and DMSO, 1.6%.

[2] = tested on: Human whole blood stimulated with a TLR2 agonist (lipoteichoic acid), IL-6 levels; assay: IRAK4 Whole Blood Assay; format: cell-based; details: 10 μg/mL lipoteichoic acid for 5 hours
Experimental: Human whole blood containing the anti-coagulant ACD-A was plated in 384-well plate (25 μL/well) and incubated with compounds for 60 minutes at 37° C. in a 5% CO2 incubator. The blood was stimulated with a TLR2 agonist, 10 μg/mL final concentration of lipoteichoic acid (Invivogen, San Diego, CA) in 25 μL RPMI (Gibco) for 5 hours in a 5% CO2 incubator. At the end of the incubation, plates were centrifuged at 2300 rpm for 5 minutes. Supernatants were harvested and analyzed for IL-6 levels by Flow Cytometry beads assay (BD Biosciences, San Jose, CA).

Chain of IRAK4 (Q9NWZ3 whole entry): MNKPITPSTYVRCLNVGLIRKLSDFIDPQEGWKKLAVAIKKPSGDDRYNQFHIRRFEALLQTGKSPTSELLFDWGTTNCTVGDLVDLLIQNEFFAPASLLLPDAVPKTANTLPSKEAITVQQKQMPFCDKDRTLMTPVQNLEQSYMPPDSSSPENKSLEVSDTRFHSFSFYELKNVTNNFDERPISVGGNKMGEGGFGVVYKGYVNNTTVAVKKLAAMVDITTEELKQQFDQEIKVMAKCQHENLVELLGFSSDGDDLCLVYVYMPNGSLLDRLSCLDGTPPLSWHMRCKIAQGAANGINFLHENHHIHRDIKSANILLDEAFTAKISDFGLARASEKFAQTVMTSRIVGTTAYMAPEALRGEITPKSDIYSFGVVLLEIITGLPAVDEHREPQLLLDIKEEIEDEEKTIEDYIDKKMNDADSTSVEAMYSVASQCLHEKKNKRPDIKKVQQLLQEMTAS

IC50 [1]	EC50 [2]	Compound
8.5 nM	1700 nM	CC(C)Nc1c(C(=O)NC[C@@H](F)C(C)(C)O)cnc2c1Oc1ccc(C#N)cc1O2 [Example 2, (R)-8-cyano-N-(2-fluoro-3-hydroxy-3-methylbutyl)-4-(isopropylamino)benzo[5,6][1,4]dioxino[2,3-b]pyridine-3-carboxamide]
60 nM	–	CC(C)Nc1c(C(=O)NC2CCOCC2)cnc2c1Oc1cc(C#N)ccc1O2 [Example 3, 7-cyano-4-(isopropylamino)-N-(tetrahydro-2H-pyran-4-yl)benzo[5,6][1,4]dioxino [2,3-b]pyridine-3-carboxamide]
82 nM	–	CCOCCNC(=O)c1cnc2c(c1NC(C)C)Oc1cc(C#N)ccc1O2 [Example 4, 7-cyano-N-(2-ethoxyethyl)-4-(isopropylamino)benzo[5,6][1,4]dioxino[2,3-b]pyridine-3-carboxamide]
150 nM	–	COCCNC(=O)c1cnc2c(c1NC(C)C)Oc1cc(C#N)ccc1O2 [Example 5, 7-cyano-4-(isopropylamino)-N-(2-methoxyethyl)benzo[5,6][1,4]dioxino[2,3-b]pyridine-3-carboxamide]
31 nM	–	CC(C)Nc1c(C(=O)N[C@H]2CC[C@H](O)CC2)cnc2c1Oc1cc(C#N)ccc1O2 [Example 6, 7-cyano-N-((1r,4r)-4-hydroxycyclohexyl)-4-(isopropylamino)benzo[5,6][1,4]dioxino[2,3-b]pyridine-3-carboxamide]
270 nM	–	CC(C)Nc1c(C(=O)NCC(C)(C)CO)cnc2c1Oc1cc(C#N)ccc1O2 [Example 7, 7-cyano-N-(3-hydroxy-2,2-dimethylpropyl)-4-(isopropylamino)benzo[5,6][1,4]dioxino[2,3-b]pyridine-3-carboxamide]
220 nM	–	CC(C)Nc1c(C(=O)NC(CCO)C2CC2)cnc2c1Oc1cc(C#N)ccc1O2 (centres unmarked) [Example 8, 7-cyano-N-(1-cyclopropyl-3-hydroxypropyl)-4-(isopropylamino)benzo[5,6][1,4]dioxino[2,3-b]pyridine-3-carboxamide]
92 nM	–	CC(C)Nc1c(C(=O)NC2CCCOC2)cnc2c1Oc1cc(C#N)ccc1O2 (centres unmarked) [Example 9, 7-cyano-4-(isopropylamino)-N-(tetrahydro-2H-pyran-3-yl)benzo[5,6][1,4]dioxino [2,3-b]pyridine-3-carboxamide]
160 nM	–	CC(C)Nc1c(C(=O)N[C@H](C)CCO)cnc2c1Oc1cc(C#N)ccc1O2 [Example 10, (R)-7-cyano-N-(4-hydroxybutan-2-yl)-4-(isopropylamino)benzo[5,6][1,4]dioxino [2,3-b]pyridine-3-carboxamide]
440 nM	–	CC(C)Nc1c(C(=O)NCC2(CO)CC2)cnc2c1Oc1cc(C#N)ccc1O2 [Example 11, 7-cyano-N-((1-(hydroxymethyl)cyclopropyl)methyl)-4-(isopropylamino)benzo [5,6][1,4]dioxino[2,3-b]pyridine-3-carboxamide]
140 nM	–	CC(C)Nc1c(C(=O)NCc2nnc[nH]2)cnc2c1Oc1cc(C#N)ccc1O2 [Example 12, N-((4H-1,2,4-triazol-3-yl)methyl)-7-cyano-4-(isopropylamino)benzo[5,6][1,4]dioxino [2,3-b]pyridine-3-carboxamide]
180 nM	–	CC(C)Nc1c(C(=O)NCc2cnco2)cnc2c1Oc1cc(C#N)ccc1O2 [Example 13, 7-cyano-4-(isopropylamino)-N-(oxazol-5-ylmethyl)benzo[5,6][1,4]dioxino[2,3-b]pyridine-3-carboxamide]
530 nM	–	Cc1cc(CNC(=O)c2cnc3c(c2NC(C)C)Oc2cc(C#N)ccc2O3)on1 [Example 14, 7-cyano-4-(isopropylamino)-N-((3-methylisoxazol-5-yl)methyl)benzo[5,6][1,4]dioxino[2,3-b]pyridine-3-carboxamide]
22 nM	–	CC(C)Nc1c(C(=O)NCCC(C)(C)O)cnc2c1Oc1cc(C#N)ccc1O2 [Example 15, 7-cyano-N-(3-hydroxy-3-methylbutyl)-4-(isopropylamino)benzo[5,6][1,4]dioxino [2,3-b]pyridine-3-carboxamide]
23 nM	–	CC(C)CCNC(=O)c1cnc2c(c1NC(C)C)Oc1cc(C#N)ccc1O2 [Example 16, 7-cyano-N-isopentyl-4-(isopropylamino)benzo[5,6][1,4]dioxino[2,3-b]pyridine-3-carboxamide]
34 nM	–	CC(C)Nc1c(C(=O)N[C@H]2CC[C@H](N)CC2)cnc2c1Oc1cc(C#N)ccc1O2 [Example 17, N-((1R,4R)-4-aminocyclohexyl)-7-cyano-4-(isopropylamino)benzo[5,6][1,4]dioxino [2,3-b]pyridine-3-carboxamide]
240 nM	–	CC(C)Nc1c(C(=O)NCC2(CO)COC2)cnc2c1Oc1cc(C#N)ccc1O2 [Example 18, 7-cyano-N-((3-(hydroxymethyl)oxetan-3-yl)methyl)-4-(isopropylamino)benzo [5,6][1,4]dioxino[2,3-b]pyridine-3-carboxamide]
170 nM	–	CC(C)Nc1c(C(=O)NCc2nccs2)cnc2c1Oc1cc(C#N)ccc1O2 [Example 19, 7-cyano-4-(isopropylamino)-N-(thiazol-2-ylmethyl)benzo[5,6][1,4]dioxino[2,3-b]pyridine-3-carboxamide]
85 nM	–	CC(C)Nc1c(C(=O)NC2CCNCC2)cnc2c1Oc1cc(C#N)ccc1O2 [Example 20, 7-cyano-4-(isopropylamino)-N-(piperidin-4-yl)benzo[5,6][1,4]dioxino[2,3-b]pyridine-3-carboxamide]
